Source: patent US20260217765A1, “NOVEL ANTIMICROBIAL PEPTIDE DESIGNED FROM DUCK-DERIVED ANTIMICROBIAL PEPTIDE ANDUSE THEREOF” (INDUSTRY-ACADEMIC COOPERATION FOUNDATION, CHOSUN UNIVERSITY, priority 2023, published 2026)
Converted amounts (≈) assume the structure as drawn. Peptide text beside a SMILES is read from it.

What was measured:
[1] = tested on: Acinetobacter baumannii_isolate 1 (antibiotic-resistant); type: cell-based, Acinetobacter baumannii; settings: isolate 1 (antibiotic-resistant)
Excerpt: (§1) To compare the antimicrobial activity of the peptides prepared in <Example 1>, the minimum inhibitory concentration (MIC), […] measured. Here, the minimal inhibitory concentration (MIC) refers to the lowest concentration of a substance that prevents visible bacterial growth.
(§2) Specifically, the bacterial strains listed in Table 2 below were obtained and cultured in media suitable for each strain until the mid-log phase. The cultures were then diluted to a concentration of 2×10^4 cells/100 μL and prepared in microtiter plates (Nunc, USA). Subsequently, serial 2-fold dilutions of the peptides prepared in Example 1 were prepared, and 10 μL of each dilution was added to the wells, and the plates were incubated at 37° C. for 18 hours. Absorbance at 600 nm was measured using a microtiter plate reader (Merck ELISA reader, Germany) to determine the MIC values for each bacterial strain. The parent peptide dCATH was used as a control.

[2] = tested on: Acinetobacter baumannii_isolate 25 (antibiotic-resistant); type: cell-based, Acinetobacter baumannii; settings: isolate 25 (antibiotic-resistant)
Excerpt: as §1, §2

[3] = tested on: Acinetobacter baumannii_isolate 4 (antibiotic-resistant); type: cell-based, Acinetobacter baumannii; settings: isolate 4 (antibiotic-resistant)
Excerpt: as §1, §2

[4] = tested on: Acinetobacter baumannii_isolate 3 (antibiotic-resistant); type: cell-based, Acinetobacter baumannii; settings: isolate 3 (antibiotic-resistant)
Excerpt: as §1, §2

[5] = tested on: Acinetobacter baumannii_isolate21 (antibiotic-resistant); type: cell-based, Acinetobacter baumannii; settings: isolate21 (antibiotic-resistant)
Excerpt: as §1, §2

[6] = tested on: Acinetobacter baumannii_isolate 7 (antibiotic-resistant); type: cell-based, Acinetobacter baumannii; settings: isolate 7 (antibiotic-resistant)
Excerpt: as §1, §2

[7] = tested on: Acinetobacter baumannii_isolate 19 (antibiotic-resistant); type: cell-based, Acinetobacter baumannii; settings: isolate 19 (antibiotic-resistant)
Excerpt: as §1, §2

[8] = tested on: Acinetobacter baumannii_isolate15 (antibiotic-resistant); type: cell-based, Acinetobacter baumannii; settings: isolate15 (antibiotic-resistant)
Excerpt: as §1, §2

[9] = tested on: Acinetobacter baumannii_isolate 5 (antibiotic-resistant); type: cell-based, Acinetobacter baumannii; settings: isolate 5 (antibiotic-resistant)
Excerpt: as §1, §2

[10] = tested on: Acinetobacter baumannii_isolate16 (antibiotic-resistant); type: cell-based, Acinetobacter baumannii; settings: isolate16 (antibiotic-resistant)
Excerpt: as §1, §2

[11] = tested on: Acinetobacter baumannii_isolate 18 (antibiotic-resistant); type: cell-based, Acinetobacter baumannii; settings: isolate 18 (antibiotic-resistant)
Excerpt: as §1, §2

[12] = tested on: Acinetobacter baumannii_isolate 8 (antibiotic-resistant); type: cell-based, Acinetobacter baumannii; settings: isolate 8 (antibiotic-resistant)
Excerpt: as §1, §2

[13] = tested on: Acinetobacter baumannii_isolate 13 (antibiotic-resistant); type: cell-based, Acinetobacter baumannii; settings: isolate 13 (antibiotic-resistant)
Excerpt: as §1, §2

[14] = tested on: Acinetobacter baumannii_isolate 12 (antibiotic-resistant); type: cell-based, Acinetobacter baumannii; settings: isolate 12 (antibiotic-resistant)
Excerpt: as §1, §2

[15] = tested on: Acinetobacter baumannii_isolate 24 (antibiotic-resistant); type: cell-based, Acinetobacter baumannii; settings: isolate 24 (antibiotic-resistant)
Excerpt: as §1, §2

[16] = tested on: Acinetobacter baumannii_isolate 2 (antibiotic-resistant); type: cell-based, Acinetobacter baumannii; settings: isolate 2 (antibiotic-resistant)
Excerpt: as §1, §2

[17] = tested on: Acinetobacter baumannii_isolate 22 (antibiotic-resistant); type: cell-based, Acinetobacter baumannii; settings: isolate 22 (antibiotic-resistant)
Excerpt: as §1, §2

[18] = tested on: Acinetobacter baumannii_isolate 26 (antibiotic-resistant); type: cell-based, Acinetobacter baumannii; settings: isolate 26 (antibiotic-resistant)
Excerpt: as §1, §2

[19] = tested on: Acinetobacter baumannii_isolate 23 (antibiotic-resistant); type: cell-based, Acinetobacter baumannii; settings: isolate 23 (antibiotic-resistant)
Excerpt: as §1, §2

in vitro = type: cell-based; settings: human, HaCaT keratinocyte cells, Cell Viability
Method: To evaluate the cytotoxicity of the peptides prepared in <Example 1>, toxicity was measured using a human keratinocyte cell line (HaCaT cell line, Dr. N. E. Fusenig, Heidelberg, Germany).
Specifically, HaCaT cells cultured in DMEM medium containing 10% fetal bovine serum (FBS) were seeded at a density of 2×10^5 cells/well into a microtiter plate and incubated for 24 hours. Then, peptides dCATH, dCATH-A1, dCATH-A2, dCATH-A3, dCATH-A4, dCATH-A5, dCATH-A6, and dCATH-A7 were added to each well at concentrations of 3.13, 6.25, 12.5, 25.0, 50.0, and 100.0 μM/well, followed by incubation for 24 hours in a 5% CO2 incubator. After 24 hours, 100 μL of a reaction solution containing 0.5 mg/mL MTT (Thiazolyl Blue Tetrazolium Bromide) dissolved in phosphate-buffered saline (PBS) was added to each well and reacted for 4 hours. After removing the supernatant, 200 μL of DMSO (dimethyl sulfoxide) was added to dissolve the formed MTT crystals, and absorbance at 570 nm was measured to determine cell viability.

[20] = tested on: Acinetobacter baumannii KCTC 1017; type: cell-based; settings: for MIC: KCTC 1017
Excerpt: as §1, §2

[21] = tested on: Escherichia coli ATCC 25922; type: cell-based
Excerpt: as §1, §2

[22] = tested on: Bacillus cereus KCTC 2508; type: cell-based
Excerpt: as §1, §2

[23] = tested on: Listeria monocytogenes KCTC 3710; type: cell-based
Excerpt: as §1, §2

[24] = tested on: Staphylococcus aureus ATCC 25923; type: cell-based; settings: for MIC: ATCC 25923
Excerpt: as §1, §2

[25] = tested on: Pseudomonas aeruginosa ATCC 27853; type: cell-based
Excerpt: as §1, §2

Compound | MIC [1] [µM] | MIC [2] [µM] | MIC [3] [µM] | MIC [4] [µM] | MIC [5] [µM] | MIC [6] [µM] | MIC [7] [µM] | MIC [8] [µM] | MIC [9] [µM] | MIC [10] [µM] | MIC [11] [µM] | MIC [12] [µM] | MIC [13] [µM] | MIC [14] [µM] | MIC [15] [µM] | MIC [16] [µM] | MIC [17] [µM] | MIC [18] [µM] | MIC [19] [µM] | viability at 24 h, 3.13 µM (in vitro) [%] | also measured
CC[C@H](C)[C@H](NC(=O)[C@H](C)NC(=O)[C@H](CCCCN)NC(=O)[C@H](CCCCN)NC(=O)[C@@H](NC(=O)[C@H](CC(C)C)NC(=O)[C@H](CCC(N)=O)NC(=O)[C@H](C)NC(=O)[C@H](C)NC(=O)[C@H](CCCNC(=N)N)NC(=O)[C@@H](N)CCCCN)C(C)C)C(=O)N[C@@H](CCCCN)C(=O)N[C@@H](CCCCN)C(=O)N[C@@H](Cc1ccc(O)cc1)C(=O)N[C@@H](CCCNC(=N)N)C(=O)N[C@@H](C)C(=O)N[C@@H](Cc1c[nH]c2ccccc12)C(=O)N[C@@H](CCCCN)C(=O)N[C@@H](CCCNC(=N)N)C(=O)N[C@@H](CCCNC(=N)N)C(N)=O [dCATH-A6] (H-KRAAQLVKKAIKKYRAWKRR-NH2; N-terminus assumed) | 1 (≈ 2.5 µg/mL) | 2 (≈ 5 µg/mL) | 1 (≈ 2.5 µg/mL) | 1 (≈ 2.5 µg/mL) | 1 (≈ 2.5 µg/mL) | 1 (≈ 2.5 µg/mL) | 1 (≈ 2.5 µg/mL) | 1 (≈ 2.5 µg/mL) | 1 (≈ 2.5 µg/mL) | 1 (≈ 2.5 µg/mL) | 1 (≈ 2.5 µg/mL) | 1 (≈ 2.5 µg/mL) | 1 (≈ 2.5 µg/mL) | 1 (≈ 2.5 µg/mL) | 1 (≈ 2.5 µg/mL) | 2 (≈ 5 µg/mL) | 1 (≈ 2.5 µg/mL) | 2 (≈ 5 µg/mL) | 1 (≈ 2.5 µg/mL) | 98.9 | viability at 24 h, 6.25 µM (in vitro): 100%; viability at 24 h, 12.5 µM (in vitro): 94.7%; viability at 24 h, 25 µM (in vitro): 98%; viability at 24 h, 50 µM (in vitro): 97.8%; viability at 24 h, 100 µM (in vitro): 92%; MIC [20]: 1 µM (≈ 2.5 µg/mL); antimicrobial activity compared to the control peptide dCATH ([20]; against Acinetobacter baumannii): significantly superior antimicrobial activity; MIC [21]: 2 µM (≈ 5 µg/mL); MIC [22]: 2 µM (≈ 5 µg/mL); MIC [23]: 2 µM (≈ 5 µg/mL); MIC [24]: 0.5 µM (≈ 1.25 µg/mL); antimicrobial activity compared to the control peptide dCATH ([24]; against Staphylococcus aureus strains): notably superior activity; MIC [25]: 2 µM (≈ 5 µg/mL)
CC[C@H](C)[C@H](NC(=O)[C@H](C)NC(=O)[C@H](CC(C)C)NC(=O)[C@@H]1CCCN1C(=O)[C@@H](NC(=O)[C@H](CC(C)C)NC(=O)[C@H](CCC(N)=O)NC(=O)[C@H](Cc1c[nH]c2ccccc12)NC(=O)[C@H](Cc1ccccc1)NC(=O)[C@H](CCCNC(=N)N)NC(=O)[C@@H](N)CCCCN)C(C)C)C(=O)N[C@@H](CCCCN)C(=O)N[C@H](C(=O)N[C@@H](Cc1ccc(O)cc1)C(=O)N[C@@H](CCCNC(=N)N)C(=O)N[C@@H](C)C(=O)N[C@@H](Cc1c[nH]c2ccccc12)C(=O)N[C@@H](CCCCN)C(=O)N[C@@H](CCCNC(=N)N)C(=O)N[C@@H](CCCNC(=N)N)C(N)=O)[C@@H](C)CC [dCATH, reference compound] (H-KRFWQLVPLAIKIYRAWKRR-NH2; N-terminus assumed) | 2 (≈ 5.26 µg/mL) | 2 (≈ 5.26 µg/mL) | 2 (≈ 5.26 µg/mL) | 2 (≈ 5.26 µg/mL) | 2 (≈ 5.26 µg/mL) | 4 (≈ 10.5 µg/mL) | 2 (≈ 5.26 µg/mL) | 2 (≈ 5.26 µg/mL) | 2 (≈ 5.26 µg/mL) | 2 (≈ 5.26 µg/mL) | 2 (≈ 5.26 µg/mL) | 2 (≈ 5.26 µg/mL) | 2 (≈ 5.26 µg/mL) | 2 (≈ 5.26 µg/mL) | 4 (≈ 10.5 µg/mL) | 2 (≈ 5.26 µg/mL) | 2 (≈ 5.26 µg/mL) | 2 (≈ 5.26 µg/mL) | 2 (≈ 5.26 µg/mL) | 100 | viability at 24 h, 6.25 µM (in vitro): 100%; viability at 24 h, 12.5 µM (in vitro): 75.3%; viability at 24 h, 25 µM (in vitro): 11.6%; viability at 24 h, 50 µM (in vitro): 2.51%; MIC [20]: 2 µM (≈ 5.26 µg/mL); MIC [21]: 2 µM (≈ 5.26 µg/mL); MIC [22]: 1 µM (≈ 2.63 µg/mL); MIC [23]: 2 µM (≈ 5.26 µg/mL); MIC [24]: 2 µM (≈ 5.26 µg/mL); MIC [25]: 2 µM (≈ 5.26 µg/mL)
CC[C@H](C)[C@H](NC(=O)[C@H](C)NC(=O)[C@H](CC(C)C)NC(=O)[C@@H]1CCCN1C(=O)[C@@H](NC(=O)[C@H](CC(C)C)NC(=O)[C@H](CCC(N)=O)NC(=O)[C@H](Cc1c[nH]c2ccccc12)NC(=O)[C@H](C)NC(=O)[C@H](CCCNC(=N)N)NC(=O)[C@@H](N)CCCCN)C(C)C)C(=O)N[C@@H](CCCCN)C(=O)N[C@H](C(=O)N[C@@H](Cc1ccc(O)cc1)C(=O)N[C@@H](CCCNC(=N)N)C(=O)N[C@@H](C)C(=O)N[C@@H](Cc1c[nH]c2ccccc12)C(=O)N[C@@H](CCCCN)C(=O)N[C@@H](CCCNC(=N)N)C(=O)N[C@@H](CCCNC(=N)N)C(N)=O)[C@@H](C)CC [dCATH-A1] (H-KRAWQLVPLAIKIYRAWKRR-NH2; N-terminus assumed) | 2 (≈ 5.1 µg/mL) | 2 (≈ 5.1 µg/mL) | 2 (≈ 5.1 µg/mL) | 2 (≈ 5.1 µg/mL) | 2 (≈ 5.1 µg/mL) | 2 (≈ 5.1 µg/mL) | 1 (≈ 2.55 µg/mL) | 2 (≈ 5.1 µg/mL) | 2 (≈ 5.1 µg/mL) | 2 (≈ 5.1 µg/mL) | 2 (≈ 5.1 µg/mL) | 2 (≈ 5.1 µg/mL) | 2 (≈ 5.1 µg/mL) | 2 (≈ 5.1 µg/mL) | 2 (≈ 5.1 µg/mL) | 2 (≈ 5.1 µg/mL) | 2 (≈ 5.1 µg/mL) | 2 (≈ 5.1 µg/mL) | 1 (≈ 2.55 µg/mL) | 100 | viability at 24 h, 6.25 µM (in vitro): 100%; viability at 24 h, 12.5 µM (in vitro): 97.9%; viability at 24 h, 25 µM (in vitro): 30%; viability at 24 h, 50 µM (in vitro): 0.81%; viability at 24 h, 100 µM (in vitro): 1.79%; MIC [20]: 2 µM (≈ 5.1 µg/mL); MIC [21]: 2 µM (≈ 5.1 µg/mL); MIC [22]: 2 µM (≈ 5.1 µg/mL); MIC [23]: 2 µM (≈ 5.1 µg/mL); MIC [24]: 2 µM (≈ 5.1 µg/mL); MIC [25]: 4 µM (≈ 10.2 µg/mL)
